In patent publication US7476650B2, “Enzyme inhibition” (Yale University, priority 1999, dated 2009):
Where two headings read alike, the source gives them in different places.

Columns and labels:
[1] = molecular target: T1, PGPH activity of purified bovine erythrocyte 20S proteasome (Bos taurus, UniProt Q3MHN0); test: Enzyme kinetic assay, PGPH activity (Z-LLE-AMC); assay type: biochemical; details: for kobs/[I] for PGPH activity using Z-LLE-AMC: Examples 9 and 10; for selectivity: fold higher kobs/[I] for inhibition of the PGPH activity than the chymotrypsin-like activity: PGPH vs chymotrypsin-like; for kobs/[I] PGPH: Table 3; for selectivity for the PGPH activity: in words, data not shown for Glu compounds; for kassoc = kobs/[I] PGPH activity: Table 2, inhibitor concentration range in the line below
T1 construct: from tissue; host or cells: bovine erythrocytes (red blood cells)
Method: We investigated the potency of inhibitors of various length. Mono-, di-,tri- and tetraleucine α′,β′-epoxides were ranked by determination of the kobs/[I] values for inhibition of the chymotrypsin-like, trypsin-like, and PGPH activities of purified bovine erythrocyte 20S proteasome. Enzyme kinetic assays were performed as described in Example 2.
(§1) Purified bovine erythrocyte proteasome was enzymatically assayed using a variety of different substrates and inhibitors. In order to evaluate the rates of proteolytic inactivation by inhibitors, kassociation (kobs/[I]) values were determined using fluorogenic peptide substrates over a range of inhibitor concentrations.

[2] = molecular target: T2, chymotrypsin-like activity of purified bovine erythrocyte 20S proteasome (Bos taurus, UniProt Q32KL2); test: Enzyme kinetic assay, chymotrypsin-like activity (Suc-LLVY-AMC); assay type: biochemical; details: for kobs/[I] for chymotryptic-like activity using Suc-LLVY-AMC: Examples 9 and 10, in M-1s-1; for kassoc = kobs/[I] (chymotrypsin-like activity inhibition): Table 5; for kobs/[I] Chymotrypsin-like: Table 3; for kassoc = kobs/[I] Chymotrypsin-like activity: Table 2, inhibitor concentration range in the line below
T2 construct: from tissue; host or cells: bovine erythrocytes (red blood cells)
Description: (§2) We investigated the potency of inhibitors of various length. Mono-, di-,tri- and tetraleucine α′,β′-epoxides were ranked by determination of the kobs/[I] values for inhibition of the chymotrypsin-like, trypsin-like, and PGPH activities of purified bovine erythrocyte 20S proteasome.
as §1

[3] = molecular target: T3, trypsin-like activity of purified bovine erythrocyte 20S proteasome (Bos taurus, UniProt Q2TBP0); test: Enzyme kinetic assay, trypsin-like activity (Boc-LRR-AMC); assay type: biochemical; details: for kobs/[I] for tryptic-like activity using Boc-LRR-AMC: Examples 9 and 10; for inhibition of the trypsin-like activity of the proteasome: in words; for kassoc = kobs/[I] Trypsin-like activity: Table 2, inhibitor concentration range in the line below
T3 construct: from tissue; host or cells: bovine erythrocytes (red blood cells)
Description: as §2, §1

[4] = test system: bovine aortic endothelial (BAE) cells; test: BAE cell proliferation ([methyl-3H]-thymidine incorporation); assay type: cell-based
Method: BAE cells were cultured at 7% CO2 and were grown in DMEM supplemented with 10% FBS, 1% penicillin/streptomycin (GIBCO), and 1 mM sodium pyruvate.
Approximately 1000 BAE cells were plated into each well of a 96-well culture plate. After an overnight incubation, different concentrations of proteasome inhibitors were added and incubation was continued for another five days. […] Subsequently, 74 kBq of [methyl-^3H]-thymidine was added to each well of the plate and the plate was incubated for another additional 4 hours. Cells were harvested using a Skatron Cell Harvester and incorporated radioactivity was quantified using liquid scintillation. Proliferation of BAE cells was assayed in triplicate in the presence of different concentrations of peptide epoxides.
Perturbation of the proteasome activity can result in inhibition of cell growth, and can further lead to cell death at elevated concentration of the proteasome inhibitors. This provides an excellent cell-based assay to assess the importance of each catalytic activity of the 20S proteasome in degradation of proteins involved in cell growth. We measured inhibition of proliferation of bovine aortic endothelial (BAE) cells with our α′,β′-epoxyketone-based inhibitors with varying degree of specificity for the PGPH activity.

[5] = molecular target: cathepsin B (Homo sapiens, UniProt P07858); test: Cathepsin B inhibition assay
[6] = molecular target: T4, purified murine spleen proteasome (Mus musculus, UniProt O35955+P28063+P70195); test: [3H]-epoxomicin binding to purified proteasome; details: compared with epoxomicin-biotin
T4 construct: from tissue; host or cells: murine spleen
T4 sequence (P28063 73-276): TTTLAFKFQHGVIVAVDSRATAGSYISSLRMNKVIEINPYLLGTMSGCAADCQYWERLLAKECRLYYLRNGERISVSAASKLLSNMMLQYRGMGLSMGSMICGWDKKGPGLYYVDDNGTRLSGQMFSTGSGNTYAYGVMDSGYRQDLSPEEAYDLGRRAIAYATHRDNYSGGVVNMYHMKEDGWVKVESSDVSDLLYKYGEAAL
T4 sequence (O35955 40-273): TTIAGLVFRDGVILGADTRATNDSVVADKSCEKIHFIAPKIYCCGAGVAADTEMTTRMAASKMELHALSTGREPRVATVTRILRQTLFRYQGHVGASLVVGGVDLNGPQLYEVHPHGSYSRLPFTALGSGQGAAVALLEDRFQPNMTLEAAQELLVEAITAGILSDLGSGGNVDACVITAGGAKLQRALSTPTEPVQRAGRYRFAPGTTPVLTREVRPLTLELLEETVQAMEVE
T4 sequence (P70195 44-277): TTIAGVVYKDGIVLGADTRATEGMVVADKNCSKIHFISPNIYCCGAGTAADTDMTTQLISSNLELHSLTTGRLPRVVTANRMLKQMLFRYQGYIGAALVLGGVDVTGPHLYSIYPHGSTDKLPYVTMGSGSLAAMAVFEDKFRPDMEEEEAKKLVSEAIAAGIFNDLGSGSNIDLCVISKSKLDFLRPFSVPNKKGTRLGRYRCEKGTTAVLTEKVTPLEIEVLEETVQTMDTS

[7] = test system: mice, DNFB applied to the ear; test: DNFB ear inflammation (irritant sensitivity response); assay type: in vivo; details: single dose one hour before DNFB, 24 hours
Method: Ear thickness was measured at 0 and 24 hours after DNFB application.

[8] = test system: p53 protein levels in HUVECs; test: α-p53 immunoblot of treated HUVECs; assay type: cell-based; details: 5 μM
Method: The tumor suppressor p53 is a known target of the proteasome.
The control experiment (Crtl) was carried out with vehicle only.

[9] = Table 6, PGPH-directed inhibitors

| Structure (SMILES) | kobs/[I] for PGPH activity using Z-LLE-AMC [1] | kobs/[I] for chymotryptic-like activity using Suc-LLVY-AMC [2] | kassoc = kobs/[I] (chymotrypsin-like activity inhibition) [2] | kobs/[I] for tryptic-like activity using Boc-LRR-AMC [3] | IC50 ([4]; Table 5, five days incubation) | kobs/[I] PGPH [1] | kobs/[I] Chymotrypsin-like [2] | IC50 [4, 9] | further results |
| --- | --- | --- | --- | --- | --- | --- | --- | --- | --- |
| CC(=O)N[C@@H](C)C(=O)N[C@@H](CC(C)C)C(=O)N[C@@H](CC(C)C)C(=O)N[C@@H](CC(C)C)C(=O)[C@@]1(C)CO1 [Ac-ALLL-epoxide] | 220 | 5,300 | 5300 M⁻¹ s⁻¹ | 3.8 M⁻¹ s⁻¹ | 83 nM | – | – | – | – |
| CC(=O)NCC(=O)N1CCC[C@H]1C(=O)N[C@@H](Cc1ccccc1)C(=O)N[C@@H](CC(C)C)C(=O)C1(C)CO1 (stereo partly drawn) [Ac-GPFL-Ex] | – | – | – | – | – | 190 ± 10 M⁻¹ s⁻¹ | 5 ± 1 M⁻¹ s⁻¹ | 58000 nM | selectivity: fold higher kobs/[I] for inhibition of the PGPH activity than the chymotrypsin-like activity [1]: 35 fold; inhibition of the trypsin-like activity of the proteasome [3]: no inhibition |
| CC(=O)N[C@@H](CC(C)C)C(=O)N[C@@H](C)C(=O)N[C@@H](CC(C)C)C(=O)N[C@@H](CC(C)C)C(=O)[C@@]1(C)CO1 [Ac-LALL-epoxide] | 130 | 1,300 | 1300 M⁻¹ s⁻¹ | 2 M⁻¹ s⁻¹ | 700 nM | – | – | – | – |
| CC(=O)N[C@@H](CC(C)C)C(=O)N[C@@H](Cc1ccccc1)C(=O)N[C@@H](CC(C)C)C(=O)N[C@@H](CC(C)C)C(=O)[C@@]1(C)CO1 [Ac-LFLL-epoxide] | not measurable | 8,500 | 8500 M⁻¹ s⁻¹ | not measurable | 16 nM | – | – | – | – |
| CC(=O)N[C@@H](CC(C)C)C(=O)N[C@@H](CC(C)C)C(=O)N[C@@H](C)C(=O)N[C@@H](CC(C)C)C(=O)[C@@]1(C)CO1 [Ac-LLAL-epoxide] | 20 | 16,000 | 16,000 M^−1 s^−1 | 4.1 M⁻¹ s⁻¹ | 34 nM | – | – | – | – |
| CC(=O)N[C@@H](CC(C)C)C(=O)N[C@@H](CC(C)C)C(=O)N[C@@H](Cc1ccccc1)C(=O)N[C@@H](CC(C)C)C(=O)[C@@]1(C)CO1 [Ac-LLFL-epoxide] | not measurable | 54,000 | 54,000 M^−1 s^−1 | not measurable | 7 nM | – | – | – | – |
| CCCC[C@H](NC(C)=O)C(=O)N1CCC[C@H]1C(=O)N[C@@H](Cc1ccccc1)C(=O)N[C@@H](CC(C)C)C(=O)[C@@]1(C)CO1 [Ac-NorLPFL-Ex] | – | – | – | – | – | 115 ± 15 M⁻¹ s⁻¹ | 1.9 ± 0.6 M⁻¹ s⁻¹ | 53000 nM | selectivity: fold higher kobs/[I] for inhibition of the PGPH activity than the chymotrypsin-like activity [1]: 60 fold; inhibition of the trypsin-like activity of the proteasome [3]: no inhibition |
| CC(C)CCCCC(=O)N1CCC[C@H]1C(=O)N[C@@H](Cc1ccccc1)C(=O)N[C@@H](CC(C)C)C(=O)[C@@]1(C)CO1 [Isooctanioc-PFL-Ex] | – | – | – | – | – | 194 ± 4 M⁻¹ s⁻¹ | 190 ± 60 M⁻¹ s⁻¹ | 600 nM | selectivity for the PGPH activity [1]: no selectivity; inhibition of the trypsin-like activity of the proteasome [3]: no inhibition |
| CC(C)C[C@H](NC(=O)[C@H](Cc1ccccc1)NC(=O)[C@@H]1CCCN1C(=O)c1ccc(N(C)C)cc1)C(=O)[C@@]1(C)CO1 [N-dimethylaminobenzoyl-PFL-EX] | – | – | – | – | – | 150 ± 40 M⁻¹ s⁻¹ | 220 ± 70 M⁻¹ s⁻¹ | 400 nM | selectivity for the PGPH activity [1]: no selectivity; inhibition of the trypsin-like activity of the proteasome [3]: no inhibition |
| CC(C)C[C@@H](/C=C/S(C)(=O)=O)NC(=O)[C@H](CC(C)C)NC(=O)[C@H](CC(C)C)NC(=O)Cc1cc(I)c(O)c([N+](=O)[O-])c1 [NLVS, reference compound] | – | – | – | – | – | – | – | – | inhibition of cathepsin B enzymatic activity ([5]; at 10 μM): significantly inhibited; kassoc = kobs/[I] PGPH activity [1]: 6.4 ± 2.3 M⁻¹ s⁻¹; kassoc = kobs/[I] Chymotrypsin-like activity [2]: 6790 ± 919 M⁻¹ s⁻¹; kassoc = kobs/[I] Trypsin-like activity [3]: 5.3 ± 2.8 M⁻¹ s⁻¹ |
| CC(C)C[C@H](NC(=O)[C@H](Cc1ccccc1)NC(=O)[C@@H]1CCCN1C(=O)c1cnccn1)C(=O)C1(C)CO1 (stereo partly drawn) [Pyrazinecarbonyl-PFL-Ex] | – | – | – | – | – | 23 ± 3 M⁻¹ s⁻¹ | 520 ± 40 M⁻¹ s⁻¹ | 400 nM | kobs/[I] Trypsin-like ([3]; Table 3): 3.7 ± 1.1 M⁻¹ s⁻¹ |
| [3H]C([3H])([3H])C(=O)N(C)[C@H](C(=O)N[C@H](C(=O)N[C@H](C(=O)N[C@@H](CC(C)C)C(=O)[C@@]1(C)CO1)[C@@H](C)O)[C@@H](C)CC)[C@@H](C)CC [[^3H] epoxomicin] | – | – | – | – | – | – | – | – | protein binding pattern [6]: same protein binding pattern observed with epoxomicin-biotin |
| CC(C)[C@H](O)[C@@]12NC(=O)[C@H](C)[C@@H]1OC2=O [clasto-lactacystin β lactone, clasto-lactacystin β-lactone, reference compound] | – | – | – | – | – | – | – | – | inhibition of cathepsin B enzymatic activity ([5]; at 50 μM): significantly inhibited; kassoc = kobs/[I] PGPH activity [1]: 37 ± 4.7 M⁻¹ s⁻¹; kassoc = kobs/[I] Chymotrypsin-like activity [2]: 8530 ± 280 M⁻¹ s⁻¹; kassoc = kobs/[I] Trypsin-like activity [3]: 253 ± 41 M⁻¹ s⁻¹ |
| CC(=O)N[C@@H](CCc1ccccc1)C(=O)N[C@@H](CC(C)C)C(=O)N[C@@H](Cc1ccccc1)C(=O)N[C@@H](CC(C)C)C(=O)[C@@]1(C)CO1 [compound 16] | – | – | – | – | – | – | – | – | kinact/KI ([1]; pH 8, Table 4, inhibitor concentration range in parentheses, read-out: kassoc = kobs/[I] PGPH activity): 21 M⁻¹ s⁻¹; kinact/KI ([2]; pH 8, read-out: kobs/[I] for chymotryptic-like activity using Suc-LLVY-AMC): 183000 M⁻¹ s⁻¹; kinact/KI ([2]; pH 8, Table 4, inhibitor concentration range in parentheses, read-out: kassoc = kobs/[I] Chymotrypsin-like activity): 166000 M⁻¹ s⁻¹; inhibition of ear inflammation / ear swelling over vehicle-treated controls ([7]; high dose 2.0 mg/kg (3.6 μmol/kg)): 12 fold; inhibition of ear inflammation / ear swelling over vehicle-treated controls ([7]; low dose 0.32 mg/kg (0.58 μmol/kg)): reducing ear swelling by the same amount as epoxomicin; kinact/KI ([3]; pH 8, Table 4, inhibitor concentration range in parentheses, read-out: kassoc = kobs/[I] Trypsin-like activity): 7.1 M⁻¹ s⁻¹; IC50 ([4]; Bos taurus, 120 h, Table 5, five days incubation): 20 nM |
| CC(=O)N[C@@H](CSC(=O)[C@]1([C@@H](O)C(C)C)NC(=O)[C@H](C)[C@@H]1O)C(=O)O [lactacystin] | – | – | – | – | – | – | – | – | increase of p53 levels over untreated cells [8]: 10 fold |
